The text below walks through data of patent publication US5414010A, “Dimeric benzimidazoles as central nervous system agents” (Warner-Lambert Company, priority 1994, dated 1995).

In assay [1] the target is T1, human D3 receptors (Homo sapiens, UniProt P35462).
T1 construct: expressed in transfected cells
Kind of assay: Inhibition of [^3 H]spiperone binding to human D3 receptors. The method, then: (§1) Dopamine D2 antagonists are established as antipsychotic agents. More recently, the dopamine D3 receptor has been identified. On the basis of the localization of the dopamine D3 receptor in the limbic area of the brain, a selective D3 antagonist should show antipsychotic activity but not have the neurological side effects of D2 antagonists. […] Thus, the compounds of Formula I were tested for their ability to bind to dopamine receptors as measured by their inhibition of [^3 H]spiperone binding to the human D2 and D3 receptors in a receptor assay described by MacKenzie R. G., et al., Characterization of the human D3 dopamine receptor expressed in transfected cell lines, Eur. J. Pharmacol., 266:79 (1994); and for their ability to inhibit locomotor activity in mice and rats, a measure of antipsychotic activity, according to the assay described by McLean J. R., et al., Pharmacology, Biochemistry and Behavior, 8:97- 99 (1978). The above test methods are incorporated herein by reference.

Assay [2] concerns the target T2, human D2 receptors (Homo sapiens, UniProt P14416).
T2 construct: expressed in transfected cells
Kind of assay: Inhibition of [^3 H]spiperone binding to human D2 receptors. The method, then:
as §1

Assay [3] relates to rats. As to the kind of experiment: Inhibition of locomotor activity in rats. The format is in vivo. The conditions noted are these: Rattus norvegicus, IP. The text has this:
The compounds of Formula I are valuable dopaminergic agents. Dopamine D2 antagonists are established as antipsychotic agents. More recently, the dopamine D3 receptor has been identified. On the basis of the localization of the dopamine D3 receptor in the limbic area of the brain, a selective D3 antagonist should show antipsychotic activity but not have the neurological side effects of D2 antagonists. The tests employed indicate that compounds of Formula I bind selectively to the dopamine D3 receptor. Thus, the compounds of Formula I were tested for their ability to bind to dopamine receptors as measured by their inhibition of [^3 H]spiperone binding to the human D2 and D3 receptors in a receptor assay described by MacKenzie R. G., et al., Characterization of the human D3 dopamine receptor expressed in transfected cell lines, Eur. J. Pharmacol., 266:79 (1994); and for their ability to inhibit locomotor activity in mice and rats, a measure of antipsychotic activity, according to the assay described by McLean J. R., et al., Pharmacology, Biochemistry and Behavior, 8:97- 99 (1978). The above test methods are incorporated herein by reference.

T1 sequence (P35462 whole entry): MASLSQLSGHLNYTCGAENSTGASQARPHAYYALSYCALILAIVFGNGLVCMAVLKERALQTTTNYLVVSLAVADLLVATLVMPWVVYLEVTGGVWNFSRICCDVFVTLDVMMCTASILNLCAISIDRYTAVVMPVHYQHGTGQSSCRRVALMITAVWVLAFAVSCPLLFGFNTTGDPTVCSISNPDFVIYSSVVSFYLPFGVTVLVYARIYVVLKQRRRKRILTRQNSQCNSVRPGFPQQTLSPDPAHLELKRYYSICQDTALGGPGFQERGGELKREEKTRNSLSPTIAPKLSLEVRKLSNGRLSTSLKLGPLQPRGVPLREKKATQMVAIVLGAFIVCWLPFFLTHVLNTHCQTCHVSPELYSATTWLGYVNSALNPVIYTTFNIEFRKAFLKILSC
T2 sequence (P14416 whole entry): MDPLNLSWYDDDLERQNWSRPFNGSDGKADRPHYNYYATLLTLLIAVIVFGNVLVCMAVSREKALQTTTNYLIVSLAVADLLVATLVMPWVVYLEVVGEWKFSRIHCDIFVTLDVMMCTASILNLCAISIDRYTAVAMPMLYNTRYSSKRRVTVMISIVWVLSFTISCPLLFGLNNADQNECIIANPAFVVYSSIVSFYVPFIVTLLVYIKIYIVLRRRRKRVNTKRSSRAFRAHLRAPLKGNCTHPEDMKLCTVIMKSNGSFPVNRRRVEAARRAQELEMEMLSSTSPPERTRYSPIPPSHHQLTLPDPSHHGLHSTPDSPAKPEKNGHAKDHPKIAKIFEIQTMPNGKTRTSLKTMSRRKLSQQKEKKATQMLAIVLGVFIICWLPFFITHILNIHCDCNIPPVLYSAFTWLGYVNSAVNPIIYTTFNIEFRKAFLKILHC

In general, IC50 refers to the concentration needed to halve the response being measured. Read a low IC50 as higher potency. As for `C(=C\Cn1c(-c2ccc(OCCCN3CCCC3)cc2)nc2ccccc21)/Cn1c(-c2ccc(OCCCN3CCCC3)cc2)nc2ccccc21` [Example 1], the IC50 in assay [1] amounted to 9 nM.

With `CCCN(CCC)CCCOc1ccc(-c2nc3ccccc3n2C/C=C/Cn2c(-c3ccc(OCCCN(CCC)CCC)cc3)nc3ccccc32)cc1` [Example 2, E-(3-{4-[1-(4-{2-[4-(3-Dipropylaminopropoxy)phenyl]benzoimidazol-1-yl}but-2-enyl)-1H-benzoimidazol-2-yl]phenoxy}propyl)dipropylamine], the IC50 in assay [1] stood at 5 nM.

Compound `CN(C)CCCOc1ccc(-c2nc3ccccc3n2C/C=C/Cn2c(-c3ccc(OCCCN(C)C)cc3)nc3ccccc32)cc1` [Example 5, E-(3-{4-[1-(4-{2-[4-(3-Dimethylaminopropoxy)phenyl]benzoimidazol-1-yl}but-2-enyl)-1H-benzoimidazol-2-yl]phenoxy}propyl)dimethylamine] yielded an IC50 in assay [1] of 143 nM.

Turning to `C(=C\Cn1c(-c2ccc(OCCCN3CCCCC3)cc2)nc2ccccc21)/Cn1c(-c2ccc(OCCCN3CCCCC3)cc2)nc2ccccc21` [Example 6], the IC50 in assay [1] is 9 nM.

Take `CCN(CC)CCCOc1cccc(-c2nc3ccccc3n2C/C=C/Cn2c(-c3cccc(OCCCN(CC)CC)c3)nc3ccccc32)c1` [Example 7, E-(3-{3-[1-(4-{2-[3-(3-Diethylaminopropoxy)phenyl]benzoimidazol-1-yl}but-2-enyl)-1H-benzoimidazol-2-yl]phenoxy}propyl)diethylamine]: the results for the IC50 in assay [1] and in assay [2] were 16 nM and 2450 nM, respectively.

In assay [2], `CCCCN(CCCC)CCCOc1ccc(-c2nc3ccccc3n2C/C=C/Cn2c(-c3ccc(OCCCN(CCCC)CCCC)cc3)nc3ccccc32)cc1` [Example 8, E-Dibutyl-(3-{4-[1-(4-{2-[4-(3-dibutylaminopropoxy)phenyl]benzoimidazol-1-yl}-but-2-enyl)-1H-benzoimidazol-2-yl]phenoxy}propyl)amine] yielded an IC50 of 427 nM.

In the case of `CC(C)N(C)CCCOc1ccc(-c2nc3ccccc3n2C/C=C/Cn2c(-c3ccc(OCCCN(C)C(C)C)cc3)nc3ccccc32)cc1` [Example 9, E-Isopropyl-[3-(4-{1-[4-(2-{4-[3-(isopropylmethylamino)propoxy]phenyl}benzoimidazol-1-yl)but-2-enyl]-1H-benzoimidazol-2-yl}phenoxy)propyl]methylamine], the IC50 was 6 nM in assay [1] and 200 nM in assay [2].

The term ED50 denotes the midpoint of the dose-response relation. A low value points to an effect at a small dose. `CCN(CC)CCCOc1ccc(-c2nc3ccccc3n2C/C=C/Cn2c(-c3ccc(OCCCN(CC)CC)cc3)nc3ccccc32)cc1` [Example 10, E-(3-{4-[1-(4-{2-[4-(3-Diethylaminopropoxy)phenyl]benzoimidazol-1-yl}but-2-enyl)-1H-benzoimidazol-2-yl]phenoxy}propyl)diethylamine] registered a concentration for half-maximal inhibition (IC50) in assay [1] of 16 nM. In addition, the ED50 in assay [3] was 3.9 mg/kg.

Turning to `CCCN(CCC)CCCOc1ccc(-c2nc3ccccc3n2CCCCn2c(-c3ccc(OCCCN(CCC)CCC)cc3)nc3ccccc32)cc1` [Example 11, (3-{4-[1-(4-{2-[4-(3-Dipropylaminopropoxy)phenyl]benzoimidazol-1-yl}butyl)-1H-benzoimidazol-2-yl]phenoxy}propyl)dipropylamine], the IC50 worked out at 16 nM in assay [1] and 2740 nM in assay [2].

For `CCN(CC)CCCOc1ccc(-c2nc3ccccc3n2CCCCn2c(-c3ccc(OCCCN(CC)CC)cc3)nc3ccccc32)cc1` [Example 12, (3-{4-[1-(4-{2-[4-(3-Diethylaminopropoxy)phenyl]benzoimidazol-1-yl}butyl)-1H-benzoimidazol-2-yl]phenoxy}propyl)diethylamine], the IC50 in assay [1] was 36 nM; in assay [2], 1070 nM. Moreover, the ED50 in assay [3] is 2.8 mg/kg.

`CCN(CC)CCCOc1ccc(-c2nc3ccccc3n2C/C=C/Cn2c(-c3ccccc3)nc3ccccc32)cc1` [Example 13, Diethyl-[3-(4-{1-[4-(2-phenylbenzoimidazol-1-yl)but-2-enyl]-1H-benzoimidazol-2-yl}phenoxy)propyl]amine]: the IC50 in assay [2] was determined as 6430 nM. In other words, the single-digit micromolar range.

Take `NCCCOc1ccc(-c2nc3ccccc3n2C/C=C/Cn2c(-c3ccc(OCCCN4CCN(c5ccccc5)CC4)cc3)nc3ccccc32)cc1` [Example 15]: the concentration for half-maximal inhibition (IC50) in assay [1] was 19 nM; in assay [2], 803 nM.

Turning to `CCN1CCCC1CNC(=O)c1ccc(-c2nc3ccccc3n2CCCCn2c(-c3ccc(C(=O)NCC4CCCN4CC)cc3)nc3ccccc32)cc1` (centres unmarked) [Example 16], the IC50 in assay [1] amounted to 85 nM; in assay [2], 1430 nM.

As to `CCN(CC)CCNC(=O)c1ccc(-c2nc3ccccc3n2CCCCn2c(-c3ccc(C(=O)NCCN(CC)CC)cc3)nc3ccccc32)cc1` [Example 17], the IC50 in assay [1] came out at 110 nM; in assay [2], 3070 nM.
